One assay addresses T1, Aurora A kinase (Homo sapiens, UniProt O14965).
T1 construct: purchased Upstate
T1 sequence (O14965 1-403): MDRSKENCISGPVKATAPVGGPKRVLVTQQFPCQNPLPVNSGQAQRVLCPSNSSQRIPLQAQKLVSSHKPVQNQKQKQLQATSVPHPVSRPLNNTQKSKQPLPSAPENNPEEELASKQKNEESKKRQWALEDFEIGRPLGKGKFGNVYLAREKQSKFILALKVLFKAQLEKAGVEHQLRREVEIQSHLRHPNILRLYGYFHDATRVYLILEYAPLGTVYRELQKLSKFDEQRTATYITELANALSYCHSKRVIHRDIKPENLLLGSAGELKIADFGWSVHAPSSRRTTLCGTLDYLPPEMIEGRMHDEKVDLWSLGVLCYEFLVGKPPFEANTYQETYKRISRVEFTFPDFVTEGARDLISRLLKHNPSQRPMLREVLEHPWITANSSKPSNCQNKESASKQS
The experiment in a line: Aurora A kinase assay ([γ-33P]ATP, CHOCKtide substrate). Conditions: for inhibition at 1 µM: 1.0 μM test compound. Type of assay: biochemical. In a few lines:
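Radiometric filter-binding format: 33P incorporation into CHOCKtide counted after acid stop and filtration. Reactions ran 30 min at 33 °C, Aurora A with 10 μM ATP, Aurora B with 40 μM ATP. IC50 taken as concentration giving half-maximal kinase inhibition.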

The next assay addresses T2, Flt3 kinase (Homo sapiens, UniProt P36888).
T2 construct: recombinant N-terminal 6×His-tagged Flt3 kinase domain construct expressed from baculovirus; 6xHis (N); made in house
T2 sequence (P36888 610-943 limits assumed): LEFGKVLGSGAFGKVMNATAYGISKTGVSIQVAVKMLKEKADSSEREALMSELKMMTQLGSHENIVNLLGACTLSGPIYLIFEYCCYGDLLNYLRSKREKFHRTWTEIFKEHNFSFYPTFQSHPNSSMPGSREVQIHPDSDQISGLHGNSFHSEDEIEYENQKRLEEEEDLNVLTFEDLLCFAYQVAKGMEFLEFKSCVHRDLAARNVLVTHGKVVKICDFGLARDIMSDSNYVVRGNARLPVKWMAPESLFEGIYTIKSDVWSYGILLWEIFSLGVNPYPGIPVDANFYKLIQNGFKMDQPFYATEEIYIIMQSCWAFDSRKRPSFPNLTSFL
Nature of the assay: Flt3 kinase assay (33P incorporation into Poly(Glu-Tyr)). In kind it is biochemical. Conditions: 100 nM test compound; read-out: Inhibition at 100 nM (%) Flt-3. The gist of the method:
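Baculovirus-expressed His-tagged Flt3 kinase domain (5 ng) with Poly(Glu-Tyr) 4:1 substrate, 100 μM ATP plus [33P]-γ-ATP, in MOPS pH 7.0 buffer, 30 min at 30 °C. Compound tested at a single 100 nM concentration; filter-bound radioactivity counted and percent inhibition calculated relative to DMSO control.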

These results are taken from US7897602B2, “Indolinone compounds as kinase inhibitors” (Development Center for Biotechnology, priority 2009, dated 2011).

As usually defined, the inhibition is the drop in the measured response relative to a control, in per cent. The term pIC50 denotes the negative decadic logarithm of the IC50, by convention in mol/L.

Structures are written as SMILES. pIC50: −log10 of the molar value.

Take `CCS(=O)(=O)Nc1ccc2c(c1)/C(=C/c1[nH]c3c(c1CCC(=O)O)C(=O)CCC3)C(=O)N2` [DCB-70119, (Z)-5-ethylsulfonamido-3-((3-carboxyethyl-4-oxo-4,5,6,7-tetrahydro-1H-indol-2-yl)methylene)indolin-2-one]: on Aurora A kinase, the inhibition at 1 µM was 95.4%. On Flt3 kinase, the inhibition at 0.1 µM was -3.9%.
The like results for `CN1CCN(C(=O)CCc2c(/C=C3\C(=O)Nc4ccc(S(=O)(=O)N5CCCC5)cc43)[nH]c3c2C(=O)CCC3)CC1` [DCB-70120, (Z)-3-((3-(3-(4-methylpiperazin-l-yl)-3-oxopropyl)-4-oxo-4,5,6,7-tetrahydro-1H-indol-2-yl)methylene)-5-(pyrrolidin-1-ylsulfonyl)indolin-2-one] were, in that order, 50.5% and 31.2%.
For `CN(C)S(=O)(=O)c1ccc2c(c1)/C(=C/c1[nH]c3c(c1CCC(=O)O)C(=O)CCC3)C(=O)N2` [DCB-70121, (Z)-5-(N,N-dimethylsulfamoyl)-3-((3-carboxyethyl-4-oxo-4,5,6,7-tetrahydro-1H-indol-2-yl)methylene)indolin-2-one] the same measures were 97.9% and 14.6%.
The like results for `CCOC(=O)CCc1c(/C=C2\C(=O)Nc3cc(F)ccc32)[nH]c2c1C(=O)CCC2` [DCB-70122, (Z)-6-fluoro-3-((3-(3-ethoxy-3-oxopropyl)-4-oxo-4,5,6,7-tetrahydro-1H-indol-2-yl)methylene)indolin-2-one] were, in that order, 34.1% and 82.2%.
For `O=C(O)CCc1c(/C=C2\C(=O)Nc3cc(F)ccc32)[nH]c2c1C(=O)CCC2` [DCB-70123, (Z)-6-fluoro-3-((3-carboxyethyl-4-oxo-4,5,6,7-tetrahydro-1H-indol-2-yl)methylene)indolin-2-one], the inhibition at 1 µM on Aurora A kinase came to 78.1%. At Flt3 kinase, the inhibition at 0.1 µM is 61.1%.
The like results for `CCN(CC)C(=O)CCc1c(/C=C2\C(=O)Nc3ccc(F)cc32)[nH]c2c1C(=O)CCC2` [DCB-70124, (Z)-N,N-diethyl-3-(2-((5-fluoro-2-oxoindolin-3-ylidene)methyl)-4-oxo-4,5,6,7-tetrahydro-1H-indol-3-yl)propanamide] were, in that order, 11.9% and 88.6%.
For `O=C1Nc2ccc(F)cc2/C1=C/c1[nH]c2c(c1CCC(=O)N1CCOCC1)C(=O)CCC2` [DCB-70125, (Z)-5-fluoro-3-((3-(3-morpholino-3-oxopropyl)-4-oxo-4,5,6,7-tetrahydro-1H-indol-2-yl)methylene)indolin-2-one] the same measures were 39.7% and 94.6%.
The like results for `CCOC(=O)CCc1c(/C=C2\C(=O)Nc3cc(-c4ccc5c(c4)OCO5)ccc32)[nH]c2c1C(=O)CCC2` [DCB-70128, (Z)-ethyl 3-(2-((6-(benzo[d][1,3]dioxol-5-yl)-2-oxoindolin-3-ylidene)methyl)-4-oxo-4,5,6,7-tetrahydro-1H-indol-3-yl)propanoate] were, in that order, 5.1% and 3.2%.
As to `CCOC(=O)CCc1c(/C=C2\C(=O)Nc3ccc(NC(=O)Nc4cccc5ccccc45)cc32)[nH]c2c1C(=O)CCC2` [DCB-70129, (Z)-ethyl 3-(2-((5-(3-naphthalen-1-ylureido)-2-oxoindolin-3-ylidene)methyl)-4-oxo-4,5,6,7-tetrahydro-1H-indol-3-yl)propanoate], the inhibition at 1 µM against Aurora A kinase was 15.6%. In addition, the inhibition at 0.1 µM at Flt3 kinase was 12.3%.
The like results for `CCOC(=O)CCc1c(/C=C2\C(=O)Nc3cc(Br)ccc32)[nH]c2c1C(=O)CCC2` [DCB-70130, (Z)-ethyl 3-(2-((6-bromo-2-oxoindolin-3-ylidene)methyl)-4-oxo-4,5,6,7-tetrahydro-1H-indol-3-yl)propanoate] were, in that order, 22.7% and 89.1%.
The like results for `CCOC(=O)CCc1c(/C=C2\C(=O)Nc3ccc(NCc4ccccc4)cc32)[nH]c2c1C(=O)CCC2` [DCB-70131, (Z)-ethyl 3-(2-((5-(benzylamino)-2-oxoindolin-3-ylidene)methyl)-4-oxo-4,5,6,7-tetrahydro-1H-indol-3-yl)propanoate] were, in that order, 70.7% and 85.1%.
For `O=C(O)CCc1c(/C=C2\C(=O)Nc3ccc(NCc4ccccc4)cc32)[nH]c2c1C(=O)CCC2` [DCB-70132, (Z)-3-(2-((5-(benzylamino)-2-oxoindolin-3-ylidene)methyl)-4-oxo-4,5,6,7-tetrahydro-1H-indol-3-yl)propanoic acid] the same measures were 33.4% and 3.7%.
Take `O=C(O)CCc1c(/C=C2\C(=O)Nc3cc(Br)ccc32)[nH]c2c1C(=O)CCC2` [DCB-70133, (Z)-3-(2-((6-bromo-2-oxoindolin-3-ylidene)methyl)-4-oxo-4,5,6,7-tetrahydro-1H-indol-3-yl)propanoic acid]: the inhibition at 1 µM against Aurora A kinase came out at 2.6%. In addition, the inhibition at 0.1 µM on Flt3 kinase was found to be 6.1%.
On to `CCOC(=O)CCc1c(/C=C2\C(=O)Nc3ccc(NC(=O)Nc4ccccc4)cc32)[nH]c2c1C(=O)CCC2` [DCB-70134, (Z)-ethyl 3-(4-oxo-2-((2-oxo-5-(3-phenylureido)indolin-3-ylidene)methyl)-4,5,6,7-tetrahydro-1H-indol-3-yl)propanoate], for which the inhibition at 1 µM on Aurora A kinase is 16.4%. In addition, at Flt3 kinase, the inhibition at 0.1 µM turned out to be 40.9%.
Turning to `CCOC(=O)CCc1c(/C=C2\C(=O)Nc3ccc(NC(=O)Nc4ccc(Br)cc4)cc32)[nH]c2c1C(=O)CCC2` [DCB-70135, (Z)-ethyl 3-(2-((5-(3-(4-bromophenyl)ureido)-2-oxoindolin-3-ylidene)methyl)-4-oxo-4,5,6,7-tetrahydro-1H-indol-3-yl)propanoate], the inhibition at 1 µM against Aurora A kinase amounted to 7.4%. Moreover, the inhibition at 0.1 µM on Flt3 kinase worked out at 20.3%.
For the compound `CCOC(=O)CCc1c(/C=C2\C(=O)Nc3ccc(NC(=O)Nc4ccc(F)cc4)cc32)[nH]c2c1C(=O)CCC2` [DCB-70136, (Z)-ethyl 3-(2-((5-(3-(4-fluorophenyl)ureido)-2-oxoindolin-3-ylidene)methyl)-4-oxo-4,5,6,7-tetrahydro-1H-indol-3-yl)propanoate], the inhibition at 1 µM at Aurora A kinase is 26.4%. In addition, at Flt3 kinase, the inhibition at 0.1 µM amounted to 39.3%.
For `CCOC(=O)CCc1c(/C=C2\C(=O)Nc3ccc(NC(=O)Nc4ccc(Cl)c(C(F)(F)F)c4)cc32)[nH]c2c1C(=O)CCC2` [DCB-70137, (Z)-ethyl 3-(2-((5-(3-(4-chloro-3-(trifluoromethyl)phenyl)ureido)-2-oxoindolin-3-ylidene)methyl)-4-oxo-4,5,6,7-tetrahydro-1H-indol-3-yl)propanoate], the inhibition at 1 µM against Aurora A kinase came out at 12.6%. Besides, the inhibition at 0.1 µM at Flt3 kinase came out at 33.8%.
For `CCOC(=O)CCc1c(/C=C2\C(=O)Nc3ccc(NC(=O)c4ccc([N+](=O)[O-])cc4)cc32)[nH]c2c1C(=O)CCC2` [DCB-70140, (Z)-ethyl 3-(2-((5-(4-nitrobenzamido)-2-oxoindolin-3-ylidene)methyl)-4-oxo-4,5,6,7-tetrahydro-1H-indol-3-yl)propanoate] the same measures were 31.1% and 5.5%.
Regarding `CCOC(=O)CCc1c(/C=C2\C(=O)Nc3ccc(NS(=O)(=O)c4ccc(F)cc4)cc32)[nH]c2c1C(=O)CCC2` [DCB-70144, (Z)-ethyl 3-(2-((5-(4-fluorophenylsulfonamido)-2-oxoindolin-3-ylidene)methyl)-4-oxo-4,5,6,7-tetrahydro-1H-indol-3-yl)propanoate], on Aurora A kinase, the pIC50 is 6.57 and the inhibition at 1 µM came out at 82%. Besides, the inhibition at 0.1 µM at Flt3 kinase came to 38.7%.
